Laboratory results published in patent US7476666B2, “HIV integrase inhibitors” (Merck & Co., Inc., priority 2004, dated 2009).

Tested on: acute HIV infection of T-lymphoid cells
Test: Inhibition of acute HIV infection of T-lymphoid cells (spread assay)
Assay type: cell-based
Details: Human immunodeficiency virus 1
Method: An assay for the inhibition of acute HIV infection of T-lymphoid cells (alternatively referred to herein as the “spread assay”) was conducted in accordance with Vacca, J. P. et al., Proc. Natl. Acad. Sci. USA 1994, 91: 4096.

| SMILES | IC95 [µM] |
| --- | --- |
| CN(C)C(=O)c1cc(F)ccc1CNC(=O)c1nn2c(c1O)C(=O)N(C)C[C@H]2c1ccccc1 [Example 37, (7R)-N-{2-[(Dimethylamino)carbonyl]-4-fluorobenzyl}-3-hydroxy-5-methyl-4-oxo-7-phenyl-4,5,6,7-tetrahydropyrazolo[1,5-a]pyrazine-2-carboxamide] | ≤ 10 |
| CN1C[C@H](c2ccccc2)n2nc(C(=O)NCc3ccc(F)cc3C(N)=O)c(O)c2C1=O [Example 42, (7S)-N-[2-(Aminocarbonyl)-4-fluorobenzyl]-3-hydroxy-5-methyl-4-oxo-7-phenyl-4,5,6,7-tetrahydropyrazolo[1,5-a]pyrazine-2-carboxamide] | ≤ 10 |
| CC1Cn2nc(C(=O)NCc3ccc(F)cc3)c(O)c2C(=O)N1C (centres unmarked) [Example 5, 5,6-Dimethyl-N-(4-fluorobenzyl)-3-hydroxy-4-oxo-4,5,6,7-tetrahydropyrazolo[1,5-a]pyrazine-2-carboxamide] | ≤ 10 |
| CCNC(=O)c1cc(F)ccc1CNC(=O)c1nn2c(c1O)C(=O)N(C)C[C@@H]2c1ccccc1 [Example 40, (7S)-N-{2-[(Ethylamino)carbonyl]-4-fluorobenzyl}-3-hydroxy-5-methyl-4-oxo-7-phenyl-4,5,6,7-tetrahydropyrazolo[1,5-a]pyrazine-2-carboxamide] | ≤ 10 |
| CN1CC(c2ccncc2)n2nc(C(=O)NCc3ccc(F)cc3)c(O)c2C1=O (centres unmarked) [Example 45, N-(4-Fluorobenzyl)-3-hydroxy-5-methyl-4-oxo-7-pyridin-4-yl-4,5,6,7-tetrahydropyrazolo[1,5-a]pyrazine-2-carboxamide] | ≤ 10 |
| CN1CC(c2cccnc2)n2nc(C(=O)NCc3ccc(F)cc3)c(O)c2C1=O (centres unmarked) [Example 31, N-(4-fluorobenzyl)-3-hydroxy-5-methyl-4-oxo-7-pyridin-3-yl-4,5,6,7-tetrahydropyrazolo[1,5-a]pyrazine-2-carboxamide] | ≤ 10 |
| CN1CC(C(=O)N2CCCCC2)n2nc(C(=O)NCc3ccc(F)cc3)c(O)c2C1=O (centres unmarked) [Example 7, N-(4-Fluorobenzyl)-3-hydroxy-5-methyl-4-oxo-7-(piperidin-1-ylcarbonyl)-4,5,6,7-tetrahydropyrazolo[1,5-a]pyrazine-2-carboxamide] | ≤ 10 |
| CN1CCn2nc(C(=O)NCc3ccc(F)cc3S(C)(=O)=O)c(O)c2C1=O [Example 15, N-[4-Fluoro-2-(methylsulfonyl)benzyl]-3-hydroxy-5-methyl-4-oxo-4,5,6,7-tetrahydropyrazolo[1,5-a]pyrazine-2-carboxamide] | ≤ 10 |
| Cc1cn(C)c(=O)c2c(O)c(C(=O)NCc3ccc(F)cc3)nn12 [Example 10, 5,7-Dimethyl-N-(4-fluorobenzyl)-3-hydroxy-4-oxo-4,5-dihydropyrazolo[1,5-a]pyrazine-2-carboxamide] | ≤ 10 |
| O=C(c1nn2c(c1O)C(=O)N(Cc1ccc(F)cc1)CC2)N1CCC1 [Example 27, 2-(Azetidin-1-ylcarbonyl)-5-(4-fluorobenzyl)-3-hydroxy-4-oxo-4,5,6,7-tetrahydropyrazolo[1,5-a]pyrazine] | ≤ 10 |
| Cc1nc(C2CN(C)C(=O)c3c(O)c(C(=O)NCc4ccc(F)cc4)nn32)cs1 (centres unmarked) [Example 12, N-(4-Fluorobenzyl)-3-hydroxy-5-methyl-(2-methyl-1,3-thiazol-4-yl)-4-oxo-4,5,6,7-tetrahydropyrazolo[1,5-a]pyrazine-2-carboxamide] | ≤ 10 |
| CNC(=O)c1cc(F)ccc1CNC(=O)c1nn2c(c1O)C(=O)N(C)CC2c1ccccn1 (centres unmarked) [Example 47, N-{4-Fluoro-2-[(methylamino)carbonyl]benzyl}-3-hydroxy-5-methyl-4-oxo-7-pyridin-2-yl-4,5,6,7-tetrahydropyrazolo[1,5-a]pyrazine-2-carboxamide] | ≤ 10 |
| O=C(NCc1ccc(F)cc1)c1nn2c(c1O)C(=O)NCCC2 [Example 29, N-(4-Fluorobenzyl)-3-hydroxy-4-oxo-5,6,7,8-tetrahydro-4H-pyrazolo[1,5-a][1,4]diazepine-2-carboxamide] | ≤ 10 |
| O=C(NCc1ccc(Cl)c(Cl)c1)c1nn2c(c1O)C(=O)N(CCN1CCOCC1)CC2 [Example 22, N-(3,4-Dichlorobenzyl)-3-hydroxy-5-[2-(4-morpholinyl)ethyl]-4-oxo-4,5,6,7-tetrahydropyrazolo[1,5-a]pyrazine-2-carboxamide] | ≤ 10 |
| CNC(=O)c1cc(F)ccc1CNC(=O)c1nn2c(c1O)C(=O)N(C)C[C@@H]2c1ccccc1 [Example 33, (7S)—N-{4-Fluoro-2-[(methylamino)carbonyl]benzyl}-3-hydroxy-5-methyl-4-oxo-7-phenyl-4,5,6,7-tetrahydropyrazolo[1,5-a]pyrazine-2-carboxamide] | ≤ 10 |
| CN1C[C@H](c2ccccc2)n2nc(C(=O)NCc3ccc(F)cc3C(=O)NC3CC3)c(O)c2C1=O [Example 36, (7S)-N-{2-[(Cyclopropylamino)carbonyl]-4-fluorobenzyl}-3-hydroxy-5-methyl-4-oxo-7-phenyl-4,5,6,7-tetrahydropyrazolo[1,5-a]pyrazine-2-carboxamide] | ≤ 10 |

| SMILES | IC95 [µM] |
| --- | --- |
| CN1CC(c2ccncc2)n2nc(C(=O)NCc3ccc(F)c(Cl)c3)c(O)c2C1=O (centres unmarked) [Example 46, N-(3-Chloro-4-fluorobenzyl)-3-hydroxy-5-methyl-4-oxo-7-pyridin-4-yl-4,5,6,7-tetrahydropyrazolo[1,5-a]pyrazine-2-carboxamide] | ≤ 10 |
| CNC(=O)c1nn2c(c1O)C(=O)N(Cc1ccc(F)cc1)CC2c1ccccc1 (centres unmarked) [Example 4, 5-(4-Fluorobenzyl)-3-hydroxy-N-methyl-4-oxo-7-phenyl-4,5,6,7-tetrahydropyrazolo[1,5-a]pyrazine-2-carboxamide] | ≤ 10 |
| CN1CC(CN2CCCCC2)n2nc(C(=O)NCc3ccc(F)cc3)c(O)c2C1=O (centres unmarked) [Example 9, N-(4-fluorobenzyl)-3-hydroxy-5-methyl-4-oxo-7-(piperidin-1-ylmethyl)-4,5,6,7-tetrahydropyrazolo[1,5-a]pyrazine-2-carboxamide] | ≤ 10 |
| CNC(=O)c1cc(F)ccc1CNC(=O)c1nn2c(c1O)C(=O)N(C)C[C@H]2c1ccccc1 [Example 34, (7R)-N-{4-Fluoro-2-[(methylamino)carbonyl]benzyl}-3-hydroxy-5-methyl-4-oxo-7-phenyl-4,5,6,7-tetrahydropyrazolo[1,5-a]pyrazine-2-carboxamide] | ≤ 10 |
| CN1C[C@@H](c2ccccc2)n2nc(C(=O)NCc3ccc(F)cc3C(N)=O)c(O)c2C1=O [Example 41, (7R)-N-[2-(Aminocarbonyl)-4-fluorobenzyl]-3-hydroxy-5-methyl-4-oxo-7-phenyl-4,5,6,7-tetrahydropyrazolo[1,5-a]pyrazine-2-carboxamide] | ≤ 10 |
| CN1CC(c2cccc(C#N)c2)n2nc(C(=O)NCc3ccc(F)cc3)c(O)c2C1=O (centres unmarked) [Example 44, 7-(3-Cyanophenyl)-N-(4-fluorobenzyl)-3-hydroxy-5-methyl-4-oxo-4,5,6,7-tetrahydropyrazolo[5,5-a]pyrazine-2-carboxamide] | ≤ 10 |
| CCNC(=O)c1cc(F)ccc1CNC(=O)c1nn2c(c1O)C(=O)N(C)C[C@H]2c1ccccc1 [Example 39, (7R)-N-{2-[(Ethylamino)carbonyl]-4-fluorobenzyl}-3-hydroxy-5-methyl-4-oxo-7-phenyl-4,5,6,7-tetrahydropyrazolo[1,5-a]pyrazine-2-carboxamide] | ≤ 10 |
| COC(=O)c1nn2c(c1O)C(=O)N(Cc1ccc(F)cc1)CCC2 [Example 30, Methyl 5-(4-Fluorobenzyl)-3-hydroxy-4-oxo-5,6,7,8-tetrahydro-4H-pyrazolo[1,5-a][1,4]diazepine-2-carboxylate] | ≤ 10 |
| CN(C)C(=O)c1cc(F)ccc1CNC(=O)c1nn2c(c1O)C(=O)N(C)C[C@@H]2c1ccccc1 [Example 38, (7S)-N-{2-[(Dimethylamino)carbonyl]-4-fluorobenzyl}-3-hydroxy-5-methyl-4-oxo-7-phenyl-4,5,6,7-tetrahydropyrazolo[1,5-a]pyrazine-2-carboxamide] | ≤ 10 |
| CN1C[C@@H](c2ccccc2)n2nc(C(=O)NCc3ccc(F)cc3C(=O)NC3CC3)c(O)c2C1=O [Example 35, (7R)-N-{2-[(Cyclopropylamino)carbonyl]-4-fluorobenzyl}-3-hydroxy-5-methyl-4-oxo-7-phenyl-4,5,6,7-tetrahydropyrazolo[1,5-a]pyrazine-2-carboxamide] | ≤ 10 |
| O=C(NCc1ccc(Cl)c(Cl)c1)c1nn2c(c1O)C(=O)N(CC1CC1)CC2 [Example 21, 5-Cyclopropylmethyl-N-(3,4-dichlorobenzyl)-3-hydroxy-4-oxo-4,5,6,7-tetrahydropyrazolo[1,5-a]pyrazine-2-carboxamide] | ≤ 10 |
| CN1CC(c2cccc(Br)c2)n2nc(C(=O)NCc3ccc(F)cc3)c(O)c2C1=O (centres unmarked) [Example 43, 7-(3-Bromophenyl)-N-(4-fluorobenzyl)-3-hydroxy-5-methyl-4-oxo-4,5,6,7-tetrahydropyrazolo[1,5-a]pyrazine-2-carboxamide] | ≤ 10 |
| Cc1csc(C2CN(C)C(=O)c3c(O)c(C(=O)NCc4ccc(F)cc4)nn32)n1 (centres unmarked) [Example 11, N-(4-Fluorobenzyl)-3-hydroxy-5-methyl-7-(4-methyl-1,3-thiazol-2-yl)-4-oxo-4,5,6,7-tetrahydropyrazolo[1,5-a]pyrazine-2-carboxamide] | ≤ 10 |
| Cn1c(=O)c2c(O)c(C(=O)NCc3ccc(F)cc3)nn2c2ccccc21 [Example 32, N-(4-fluorobenzyl)-3-hydroxy-5-methyl-4-oxo-4,5-dihydropyrazolo[1,5-a]quinoxaline-2-carboxamide] | ≤ 10 |
| CNC(=O)c1cc(F)ccc1CNC(=O)c1nn2c(c1O)C(=O)N(C)CC2c1ccccc1 (centres unmarked) [Example 3, N-(4-Fluoro-2-[(methylamino)carbonyl]benzyl)-3-hydroxy-5-methyl-4-oxo-7-phenyl-4,5,6,7-tetrahydropyrazolo[1,5-a]pyrazine-2-carboxamide] | ≤ 10 |
| CN1CC(c2ccccc2)n2nc(C(=O)NCc3ccc(F)cc3)c(O)c2C1=O (centres unmarked) [Example 2, N-(4-Fluorobenzyl)-3-hydroxy-5-methyl-4-oxo-7-phenyl-4,5,6,7-tetrahydropyrazolo[1,5-a]pyrazine-2-carboxamide] | ≤ 10 |
